For 17 compounds, IC50 and Ki results are on record in patent publication US20240335431A1, “1-H-PYRROLO[2,3-c]PYRIDINE COMPOUNDS” (Acerta Pharma B.V., priority 2023, published 2024).

For one test, the system named is HEL cells. The test can be described thus: Proliferation assay, HEL control cell line (CellTiter-Glo, 7 days). Format: cell-based, human. An outline of the steps:
(§1)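 Cells seeded at 125 (MOLM-13), 300 (MV4;11), 75 (OCI-AML3) or 200 (HEL) per well were exposed to 3.16-fold compound dilutions (0.1% DMSO) for 7 days at 37° C. Viability by CellTiter-Glo luminescence, normalized to DMSO (100%) and day-0 plate (0%); IC50 from one-site dose-response fit.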

A further test deals with muscarinic M2 receptor (Homo sapiens (Human), UniProt P08172). The test can be described thus: Muscarinic M2 receptor binding assay (assay 1). Particulars: [3H]AF-DX 384 2 nM, Cheng Prusoff. Here is the method: Cell membrane homogenates (60 μg protein) were incubated for 60 minutes at 22° C. with 2 nM [3H]AF-DX 384 in the absence or presence of the test compound in a buffer containing 50 mM Tris-HCl (pH 7.4), 120 mM NaCl, 5 mM KCl, 5 mM MgCl2, and 1 mM EDTA. Nonspecific binding was determined in the presence of 1 μM atropine. Following incubation, the samples were filtered rapidly under vacuum through glass fiber filters (GF/B, Packard) presoaked with 0.3% PEI and rinsed several times with ice-cold 50 mM Tris-HCl using a 96-sample cell harvester (Unifilter, Packard). The filters were dried then counted for radioactivity in a scintillation counter (Topcount, Packard) using a scintillation cocktail (Microscint 0, Packard). The results were expressed as a percent inhibition of the control radioligand specific binding, from which the Ki was calculated. Data were analyzed using software developed at Cerep (Hill software) and validated by comparison with data generated by the commercial software SigmaPlot®4.0 for Windows® (© 1997 by SPSS Inc.). The inhibition constant, Ki, was calculated using the Cheng Prusoff equation:
where L=concentration of ligand in the assay, and Kd=affinity of the ligand for the receptor. The standard reference compound was methoctramine, which was tested in each experiment at several concentrations to obtain a competition curve from which its IC50 was calculated.

The next test concerns OCI-AML3 cells. The test is described as follows: Proliferation assay, OCI-AML3 (CellTiter-Glo, 7 days). Format: cell-based, human. Summed up:
as §1
On the technique in general: Cellular ATP, detected with luciferase, serves as a proxy for viable cell number.

Read-outs that look alike come from different tables or passages of the source.

Chain of muscarinic M2 receptor (P08172 whole entry): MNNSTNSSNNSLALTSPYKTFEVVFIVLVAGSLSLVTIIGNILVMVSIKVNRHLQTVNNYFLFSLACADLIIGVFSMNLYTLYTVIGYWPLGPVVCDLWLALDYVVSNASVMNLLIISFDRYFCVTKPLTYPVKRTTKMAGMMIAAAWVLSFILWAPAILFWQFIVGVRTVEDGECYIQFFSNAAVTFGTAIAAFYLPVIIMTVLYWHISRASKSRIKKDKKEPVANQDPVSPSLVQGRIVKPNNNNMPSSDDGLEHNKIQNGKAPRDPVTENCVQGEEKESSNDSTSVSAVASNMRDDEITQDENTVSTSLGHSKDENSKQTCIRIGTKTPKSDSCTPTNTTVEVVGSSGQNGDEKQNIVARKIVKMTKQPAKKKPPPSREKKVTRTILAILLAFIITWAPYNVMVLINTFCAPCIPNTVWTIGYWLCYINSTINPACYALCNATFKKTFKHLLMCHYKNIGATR

In the case of `COCCN(C)CCC[C@H](C(C)C)N1CCC(C(=O)c2cn(-c3ccc(F)cc3C(=O)N(C(C)C)C(C)C)c3cnccc23)CC1` (racemic) [Example 23, rac-(R)-5-Fluoro-N,N-diisopropyl-2-(3-(1-(6-((2-methoxyethyl)(methyl)amino)-2-methylhexan-3-yl)piperidine-4-carbonyl)-1H-pyrrolo[2,3-c]pyridin-1-yl)benzamide], the IC50 with HEL cells (Homo sapiens, HEL, 168 h) was above 10 µM. Moreover, the Ki on muscarinic M2 receptor amounted to 0.1 µM.

In turn, `CCN(C(=O)c1cc(F)ccc1-n1c(C)c(C(=O)C2CCN(C(=O)[C@H]3NC[C@@H]4C[C@@H]43)CC2)c2ccncc21)C(C)C` (single isomer, unassigned) [Example 48-1] displayed an IC50 in the test on HEL cells above 10 µM.

For the compound `Cc1c(C(=O)C2CCN(C(=O)[C@H]3NC[C@@H]4C[C@@H]43)CC2)c2ccncc2n1-c1ccc(F)cc1C(=O)N(CC(F)(F)F)C(C)C` (single isomer, unassigned) [Example 51-1], the IC50 with HEL cells (Homo sapiens, HEL, 168 h) is above 10 µM.

As for `CCN(C(=O)c1cc(F)ccc1-n1c(C)c(C(=O)[C@@H]2CCN(C(=O)[C@@H]3CCC4(CC4)N3)[C@@H](C)C2)c2ccncc21)C(C)C` (single isomer, unassigned) [Example 52-1, N-Ethyl-5-fluoro-N-isopropyl-2-(2-methyl-3-((2R*,4S*)-2-methyl-1-((S)-4-azaspiro[2.4]heptane-5-carbonyl)piperidine-4-carbonyl)-1H-pyrrolo[2,3-c]pyridin-1-yl)benzamide], the IC50 in the test on OCI-AML3 cells stood at 0.04 µM.

As for `CCN(C(=O)c1cc(F)ccc1-n1c(C)c(C(=O)[C@@H]2CCN(C(=O)[C@@H]3CCC4(CC4)N3)[C@@H](C)C2)c2ccncc21)C(C)C` (single isomer, unassigned) [Example 52-2, N-Ethyl-5-fluoro-N-isopropyl-2-(2-methyl-3-((2R*,4S*)-2-methyl-1-((S)-4-azaspiro[2.4]heptane-5-carbonyl)piperidine-4-carbonyl)-1H-pyrrolo[2,3-c]pyridin-1-yl)benzamide], the IC50 with OCI-AML3 cells was 0.082 µM; in the test on HEL cells (Homo sapiens, HEL, 168 h), above 10 µM.

In the case of `Cc1c(C(=O)C2CCN(C(=O)[C@H]3NC[C@@H]4C[C@@H]43)CC2)c2ccncc2n1-c1ccc(F)cc1C(=O)N(C(C)C)C(C)C` (single isomer, unassigned) [Example 55-1], in the test with HEL cells (Homo sapiens, HEL, 168 h), the IC50 is above 10 µM. Moreover, at muscarinic M2 receptor, the Ki was determined as 3.8 µM.

`Cc1c(C(=O)C2CCN(C(=O)[C@@H]3CCC(C)(C)N3)CC2)c2ccncc2n1-c1ccc(F)cc1C(=O)N(C(C)C)C(C)C` (single isomer, unassigned) [Example 56-1] returned an IC50 with HEL cells (Homo sapiens, HEL, 168 h) above 10 µM. For the same compound, the Ki on muscarinic M2 receptor was determined as 7.4 µM.

`Cc1c(C(=O)[C@@H]2CCN(C(=O)[C@@H]3CC[C@H](C)N3)[C@@H](C)C2)c2ccncc2n1-c1ccc(F)cc1C(=O)N(C(C)C)C(C)C` (stereo in doubt) [Example 62, 5-Fluoro-N,N-diisopropyl-2-(2-methyl-3-((2S,4RS)-2-methyl-1-((2S,5S)-5-methylpyrrolidine-2-carbonyl)piperidine-4-carbonyl)-1H-pyrrolo[2,3-c]pyridin-1-yl)benzamide]: the IC50 in the test with HEL cells (Homo sapiens, HEL, 168 h) is above 10 µM.

As to `CCN(C(=O)c1cc(F)ccc1-n1c(C)c(C(=O)[C@@H]2CCN(C(=O)[C@@H]3CC[C@H](C)N3)[C@@H](C)C2)c2ccncc21)C(C)C` (stereo in doubt) [Example 63, N-Ethyl-5-fluoro-N-isopropyl-2-(2-methyl-3-((2S,4RS)-2-methyl-1-((2S,5S)-5-methylpyrrolidine-2-carbonyl)piperidine-4-carbonyl)-1H-pyrrolo[2,3-c]pyridine-1-yl)benzamide], in the test with HEL cells (Homo sapiens, HEL, 168 h), the IC50 is above 10 µM.

In turn, `CC(C)N(C(=O)c1cc(F)ccc1-n1cc(C(=O)C2CN(C(=O)[C@H]3NC4CCC3CC4)C2)c2ccncc21)C(C)C` [Example 6, (S)-2-(3-(1-(2-Azabicyclo[2.2.2]octane-3-carbonyl)azetidine-3-carbonyl)-1H-pyrrolo[2,3-c]pyridin-1-yl)-5-fluoro-N,N-diisopropylbenzamide] registered an IC50 with HEL cells (Homo sapiens, HEL, 168 h) above 10 µM. The compound further displayed a Ki at muscarinic M2 receptor of 2.3 µM.

In the test with HEL cells (Homo sapiens, HEL, 168 h), `CC(C)c1ncsc1-c1cc(F)ccc1-n1cc(C(=O)C2CN(C(=O)[C@H]3N[C@@H]4CC[C@H]3C4)C2)c2ccncc21.O=CO` [Example 12, (1-((1R,3S,4S)-2-Azabicyclo[2.2.1]heptane-3-carbonyl)azetidin-3-yl)(1-(4-fluoro-2-(4-isopropylthiazol-5-yl)phenyl)-1H-pyrrolo[2,3-c]pyridin-3-yl)methanone 1·formic acid] had a 50% inhibitory concentration (IC50) above 10 µM. Moreover, the Ki at muscarinic M2 receptor amounted to 6.9 µM.

The compound `C=C1C[C@@H]2CC[C@H]1[C@@H](C(=O)N1CCC(C(=O)c3cn(-c4ccc(F)cc4C(=O)N(C(C)C)C(C)C)c4cnccc34)CC1)N2` [Example 18, 5-Fluoro-N,N-diisopropyl-2-(3-(1-((1S,3S,4R)-5-methylene-2-azabicyclo[2.2.2]-octane-3-carbonyl)piperidine-4-carbonyl)-1H-pyrrolo[2,3-c]pyridin-1-yl)benzamide] registered an IC50 in the test with HEL cells (Homo sapiens, HEL, 168 h) above 10 µM. Besides, the inhibition constant Ki at muscarinic M2 receptor worked out at 1 µM.

In turn, `CC(C)N(C(=O)c1cc(F)ccc1-n1cc(C(=O)C2CCN(C(=O)[C@H]3NC[C@@H]4CCC[C@@H]43)CC2)c2ccncc21)C(C)C` [Example 21, 5-Fluoro-N,N-diisopropyl-2-(3-(1-((1S,3αR,6αS)-octahydrocyclopenta[c]pyrrole-1-carbonyl)piperidine-4-carbonyl)-1H-pyrrolo[2,3-c]pyridin-1-yl)benzamide] showed an IC50 with HEL cells (Homo sapiens, HEL, 168 h) above 10 µM. The compound also came in with a Ki on muscarinic M2 receptor of 0.5 µM.

Turning to `CC(C)N(C(=O)c1cc(F)ccc1-n1cc(C(=O)C2CCN(C(=O)[C@H]3N[C@H]4C[C@@H]3[C@@H](F)C4)CC2)c2ccncc21)C(C)C` [Example 22, 5-Fluoro-2-(3-(1-((1S,3S,4S,5S)-5-fluoro-2-azabicyclo[2.2.1]heptane-3-carbonyl)piperidine-4-carbonyl)-1H-pyrrolo[2,3-c]pyridin-1-yl)-N,N-diisopropylbenzamide], the IC50 in the test with HEL cells (Homo sapiens, HEL, 168 h) was above 10 µM. The compound further yielded a Ki at muscarinic M2 receptor of 0.7 µM.

In the case of `C[C@@H]1COC[C@@H](C)N1C(=O)c1cc(F)ccc1-n1cc(C(=O)C2CCN(C(=O)[C@H]3N[C@@H]4CC[C@H]3C4)CC2)c2ccncc21` [Example 34, (1-((1R,3S,4S)-2-Azabicyclo[2.2.1]heptane-3-carbonyl)piperidin-4-yl)(1-(2-((3R,5R)-3,5-dimethylmorpholine-4-carbonyl)-4-fluorophenyl)-1H-pyrrolo[2,3-c]pyridin-3-yl)methanone], the IC50 in the test with HEL cells (Homo sapiens, HEL, 168 h) was above 10 µM.

For the compound `O=C(c1cn(-c2ccc(F)cc2-c2cncnc2C2CC2)c2cnccc12)C1CCN(C(=O)[C@H]2N[C@@H]3CC[C@H]2C3)CC1` [Example 40, (1-((1R,3S,4S)-2-Azabicyclo[2.2.1]heptane-3-carbonyl)piperidin-4-yl)(1-(2-(4-cyclopropylpyrimidin-5-yl)-4-fluorophenyl)-1H-pyrrolo[2,3-c]pyridin-3-yl)methanone], in the test on HEL cells (Homo sapiens, HEL, 168 h), the IC50 was above 10 µM.

For `CC(C)c1ccncc1-c1cc(F)ccc1-n1cc(C(=O)C2CCN(C(=O)[C@H]3N[C@@H]4CC[C@H]3C4)CC2)c2ccncc21` [Example 41, (1-((1R,3S,4S)-2-Azabicyclo[2.2.1]heptane-3-carbonyl)piperidin-4-yl)(1-(4-fluoro-2-(4-isopropylpyridin-3-yl)phenyl)-1H-pyrrolo[2,3-c]pyridin-3-yl)methanone], the IC50 in the test with HEL cells (Homo sapiens, HEL, 168 h) was above 10 µM. This compound came in with a Ki at muscarinic M2 receptor of 0.1 µM.

In general, IC50 refers to the concentration that gives 50% inhibition. A high value points to lower potency. Broadly, the Ki is a measure of affinity in units of concentration, obtained from inhibition or displacement. A low value points to a stronger hold on the target.
